Assay [1] has as its target T1, κ opioid receptor (Homo sapiens (Human), UniProt P41145). The assay is described as follows: κ-opioid receptor [35S]GTPγS functional assay, U-2 OS cells. It is filed as biochemical. To be noted: κ GTP; for EC50: read-out: Activity Response κ EC50 (nM) [mean ± SEM]; for Emax: relative to U69,593, read-out: Activity Response κ Emax (%). Background: Binding of GTPγS marks nucleotide exchange on a G protein.

For assay [2], the target named is T2, μ-opioid receptors (Homo sapiens (Human), UniProt P35372). The assay is described as follows: μ-opioid receptor [35S]GTPγS functional assay, HEK-293 cells. It is filed as biochemical. Conditions: μ GTP; for EC50: read-out: Activity Response μ EC50 (nM) [mean ± SEM]; for Emax: relative to DAMGO, read-out: Activity Response μ Emax (%).
Assay [3] addresses T2, μ-opioid receptors. Put plainly: μ-opioid receptor radioligand dose-displacement binding assay ([3H]-diprenorphine). To be noted: mean ± SEM, read-out: Binding Affinity Opioid Receptor Ki (nM) [mean ± SEM] μ. Here is the method:
Radioligand dose-displacement binding assays for μ-opioid receptors used 0.3 nM [^3H]-diprenorphine (Perkin Elmer, Shelton, Conn.), with […] membrane protein/well in a final volume of 500 μl binding buffer (10 mM MgCl2, 1 mM EDTA, 5% DMSO, 50 mM HEPES, pH 7.4). Reactions were carried out in the absence or presence of increasing concentrations of unlabeled naloxone. All reactions were conducted in 96-deep well polypropylene plates for 2 hours at room temperature. Binding reactions were terminated by rapid filtration onto 96-well Unifilter GF/C filter plates (Perkin Elmer, Shelton, Conn.), presoaked in 0.5% polyethylenimine using a 96-well tissue harvester (Perkin Elmer, Shelton, Conn.) followed by performing three filtration washes with 500 μl of ice-cold binding buffer. Filter plates were subsequently dried at 50° C. for 2-3 hours. BetaScint scintillation cocktail (Perkin Elmer, Shelton, Conn.) was added (50 μl/well), and plates were counted using a Packard Top-Count for 1 min/well. The data were analyzed using the one-site competition curve fitting functions in GraphPad PRISM™ v. 3.0 or higher (San Diego, Calif.), or an in-house function for one-site competition curve-fitting.
(§1) The following tables provide results on the efficacy of binding and activity response of exemplified Compounds of the Invention at the μ- and κ-opioid receptors. In TABLE 3, binding affinity of certain Compounds of the Invention to the μ- and κ-opioid receptors was determined as described above. In TABLE 4, activity response of certain Compounds of the Invention to the μ- and κ-opioid receptors was determined as described above for functional assays using HEK-293 cells. In TABLE 5, activity response of certain Compounds of the Invention to the μ- and κ-opioid receptors was determined as described above using U-2 OS cells.

Assay [4] concerns the target recombinant human kappa opioid receptor (κ) (Homo sapiens (Human), UniProt P41145). The assay is described as follows: κ-opioid receptor radioligand dose displacement binding assay ([3H]-U69,593). Conditions: mean ± SEM, read-out: Binding Affinity Opioid Receptor Ki (nM) [mean ± SEM] κ. The protocol:
(§2) Membranes from HEK-293 cells, CHO or U-2 OS cells expressing the recombinant human kappa opioid receptor (κ) were prepared by lysing cells in ice cold hypotonic buffer (2.5 mM MgCl2, 50 mM HEPES, pH 7.4) (10 mL/10 cm dish) followed by homogenization with a tissue grinder/Teflon pestle. Membranes were collected by centrifugation at 30,000×g for 15 min at 4° C. and pellets were resuspended in hypotonic buffer to a final concentration of 1-3 mg/mL. Protein concentrations were determined using the BioRad protein assay reagent with bovine serum albumen as standard. Aliquots of κ receptor membranes were stored at −80° C.
Radioligand dose displacement assays used 0.4 nM [^3H]-U69,593 (GE Healthcare, Piscataway, N.J.; 40 Ci/mmole) with 15 μg membrane protein (recombinant κ opioid receptor expressed in HEK 293 cells; in-house prep) in a final volume of 200 μl binding buffer (5% DMSO, 50 mM Trizma base, pH 7.4). Non-specific binding was determined in the presence of 10 μM unlabeled naloxone or U69,593. All reactions were performed in 96-well polypropylene plates for 1 hour at a temperature of about 25° C. Binding reactions were terminated by rapid filtration onto 96-well Unifilter GF/C filter plates (Perkin Elmer, Shelton, Conn.) presoaked in 0.5% polyethylenimine (Sigma). Harvesting was performed using a 96-well tissue harvester (Perkin Elmer, Shelton, Conn.) followed by five filtration washes with 200 μl ice-cold binding buffer. Filter plates were subsequently dried at 50° C. for 1-2 hours. Fifty μl/well scintillation cocktail (Perkin Elmer, Shelton, Conn.) was added and plates were counted in a Packard Top-Count for 1 min/well.
as §1

Assay [5] concerns the target T1, κ opioid receptor. The assay is described as follows: κ-opioid receptor [35S]GTPγS functional assay, HEK-293 cells. The format is biochemical. Conditions: κ GTP; for EC50: read-out: Activity Response κ EC50 (nM) [mean ± SEM]; for Emax: relative to U69,593, read-out: Activity Response κ Emax (%). Here is the method: as §2
Functional [^35S]GTPγS binding assays were conducted as follows. κ opioid receptor membrane solution was prepared by sequentially adding final concentrations of 0.026 μg/μl κ membrane protein (in-house), 10 μg/mL saponin, 3 μM GDP and 0.20 nM [^35S]GTPγS to binding buffer (100 mM NaCl, 10 mM MgCl2, 20 mM HEPES, pH 7.4) on ice. The prepared membrane solution (190 μl/well) was transferred to 96-shallow well polypropylene plates containing 10 μl of 20× concentrated stock solutions of agonist prepared in DMSO. Plates were incubated for 30 min at a temperature of about 25° C. with shaking. Reactions were terminated by rapid filtration onto 96-well Unifilter GF/B filter plates (Perkin Elmer, Shelton, Conn.) using a 96-well tissue harvester (Packard) and followed by three filtration washes with 200 μl ice-cold binding buffer (10 mM NaH2PO4, 10 mM Na2HPO4, pH 7.4). Filter plates were subsequently dried at 50° C. for 2-3 hours. Fifty μl/well scintillation cocktail (Perkin Elmer, Shelton, Conn.) was added and plates were counted in a Packard Top-Count for 1 min/well.
κ GTP EC50 is the concentration of a compound providing 50% of the maximal response for the compound at a κ receptor.
κ GTP Emax (%) is the maximal effect elicited by a compound relative to the effect elicited by U69,593.
In TABLE 3, binding affinity of certain Compounds of the Invention to the μ- and κ-opioid receptors was determined as described above. In TABLE 4, activity response of certain Compounds of the Invention to the μ- and κ-opioid receptors was determined as described above for functional assays using HEK-293 cells. In TABLE 5, activity response of certain Compounds of the Invention to the μ- and κ-opioid receptors was determined as described above using U-2 OS cells.

Assay [6] has as its target T2, μ-opioid receptors. Put plainly: μ-opioid receptor [35S]GTPγS functional assay, U-2 OS cells. The format is biochemical. To be noted: μ GTP; for EC50: read-out: Activity Response μ EC50 (nM) [mean ± SEM]; for Emax: relative to DAMGO, read-out: Activity Response μ Emax (%).

The EC50 is the concentration that produces a half-maximal response. Usually Emax stands for the size of the effect at its maximum, as opposed to the concentration needed. As usually defined, the Ki is a measure of affinity in units of concentration, obtained from inhibition or displacement. As for `COc1ccc2c(c1)[C@]13CCN(CC4CC4)[C@H](C2)[C@]1(O)C[C@H](CCOCc1ccccc1)C(=O)C3` [Compound 48, (4bR,7S,8aS,9R)-7-(2-(benzyloxy)ethyl)-11-(cyclopropylmethyl)-8a-hydroxy-3-methoxy-8,8a,9,10-tetrahydro-5H-9,4b-(epiminoethano)phenanthren-6(7H)-one], the EC50 was 225 ± 20.1 nM on κ opioid receptor [1], 463 ± 32.6 nM at μ-opioid receptors [2], 362 ± 36.6 nM on κ opioid receptor [5] and 38.6 ± 2.85 nM on μ-opioid receptors [6]. In addition, the Emax on κ opioid receptor [1] was 119 ± 4.91%; at μ-opioid receptors [2] it was 139 ± 3.21%; on κ opioid receptor [5], 70.3 ± 6.94%; at μ-opioid receptors [6], 98 ± 2.65%. In addition, the Ki at μ-opioid receptors [3] worked out at 223 ± 32.5 nM; in assay [4], 65.3 ± 4.49 nM.
On to `COc1ccc2c(c1)[C@]13CCN(CC4CC4)[C@H](C2)[C@@H]1C[C@@H](C(C)C)C(=O)C3` [Compound 72, (4bS,7S,8aR,9R)-11-(cyclopropylmethyl)-7-isopropyl-3-methoxy-8,8a,9,10-tetrahydro-5H-9,4b-(epiminoethano)phenanthren-6(7H)-one], for which the EC50 came to 303 ± 40.4 nM on κ opioid receptor [1], 212 ± 48.8 nM at μ-opioid receptors [2], 1050 ± 193 nM at κ opioid receptor [5] and 270 ± 48.2 nM at μ-opioid receptors [6]. Besides, the Emax on κ opioid receptor [1] is 102 ± 2.52%; on μ-opioid receptors [2], 101 ± 5.55%; at κ opioid receptor [5] it was 69.3 ± 6.77%; at μ-opioid receptors [6] it was 60 ± 6%. Moreover, the Ki on μ-opioid receptors [3] was found to be 476 ± 118 nM; in assay [4] it was 82.9 ± 1.96 nM.
Consider `CC(C)[C@H]1C[C@H]2[C@H]3Cc4ccc(O)cc4[C@@]2(CCN3CC2CC2)CC1=O` [Compound 74, (4bS,7R,8aR,9R)-11-(cyclopropylmethyl)-3-hydroxy-7-isopropyl-8,8a,9,10-tetrahydro-5H-9,4b-(epiminoethano)phenanthren-6(7H)-one], for which the EC50 on κ opioid receptor [1] turned out to be 1.42 ± 0.15 nM; at μ-opioid receptors [2] it was 2.31 ± 0.6 nM; at κ opioid receptor [5], 3.52 ± 1 nM; at μ-opioid receptors [6], 3.66 ± 0.82 nM. Further, the Emax on κ opioid receptor [1] is 91.3 ± 3.76%; on μ-opioid receptors [2] it was 90.3 ± 3.84%; on κ opioid receptor [5] it was 34 ± 5.86%; on μ-opioid receptors [6], 46 ± 11%. The Ki at μ-opioid receptors [3] amounted to 7.42 ± 2.25 nM; in assay [4], 0.33 ± 0.041 nM.

These data come from patent publication US9388162B2, “Substituted morphinans and the use thereof” (Purdue Pharma L.P., priority 2012, dated 2016).
